Laboratory results from ChEMBL document CHEMBL4828703, “Structure-activity relationship study of THZ531 derivatives enables the discovery of BSJ-01-175 as a dual CDK12/13 covalent inhibitor with efficacy in Ewing sarcoma” (Eur J Med Chem, 2021).
The source made the active and inactive calls. No cut-off for these calls is given here.

Key:
[1] = biological target: Mitogen-activated protein kinase 9 (Homo sapiens) (UniProt P45984); test: Inhibition of ADP(ATP)-biotin probe binding to JNK2 in human Kelly cells at 1 uM incubated for 6 hrs by KiNativ profiling analysis; assay type: cell-based
[2] = biological target: Cyclin-dependent kinase 13/Cyclin-K (Homo sapiens, UniProt Q14004); test: Inhibition of human recombinant CDK13/CyclinK assessed as reduction in substrate phosphorylation using His-c-Myc as substrate preincubated with enzyme for 5 mins followed by substrate addition for 15 mins in presence of [gamma 32P-ATP] by radioactive kinase assay; assay type: protein-complex assay
[3] = biological target: Ribosomal protein S6 kinase alpha-1 (Homo sapiens) (UniProt Q15418); test: Inhibition of ADP(ATP)-biotin probe binding to RSK1 domain 1 in human Kelly cells at 1 uM incubated for 6 hrs by KiNativ profiling analysis; assay type: cell-based
[4] = biological target: T1, Cyclin-dependent kinase 12/13 (Homo sapiens) (UniProt Q14004+Q9NYV4); test: Inhibition of CDK12/13 in human jurkat cells assessed as reduction in RNA polymerase 2 CTD phosphorylation at Ser2 residue at 1 uM measured after 6 hrs by immunoblotting analysis; assay type: cell-based
[5] = Tmax in Swiss albino mouse at 10 mg/kg, po measured upto 24 hrs by LC-MS/MS analysis; assay type: ADME, organism-based; conditions: in vivo
[6] = biological target: Mitogen-activated protein kinase 8 (Homo sapiens) (UniProt P45983); test: Inhibition of ADP(ATP)-biotin probe binding to JNK1 in human Kelly cells at 1 uM incubated for 6 hrs by KiNativ profiling analysis; assay type: cell-based
Chain of Mitogen-activated protein kinase 8 (Homo sapiens) (P45983 whole entry, the tested form may be a part): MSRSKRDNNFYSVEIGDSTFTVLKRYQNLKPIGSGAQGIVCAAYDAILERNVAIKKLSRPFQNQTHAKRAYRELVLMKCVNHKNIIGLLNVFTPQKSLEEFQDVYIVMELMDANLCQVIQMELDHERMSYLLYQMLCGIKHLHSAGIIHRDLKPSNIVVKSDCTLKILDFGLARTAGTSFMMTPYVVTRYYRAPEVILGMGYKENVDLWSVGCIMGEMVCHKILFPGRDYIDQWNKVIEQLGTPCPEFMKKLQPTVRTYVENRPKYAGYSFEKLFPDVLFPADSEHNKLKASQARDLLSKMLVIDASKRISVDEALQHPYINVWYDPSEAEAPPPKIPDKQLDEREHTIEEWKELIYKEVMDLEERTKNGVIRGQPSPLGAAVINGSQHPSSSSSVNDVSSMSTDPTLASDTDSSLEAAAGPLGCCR

[7] = biological target: Ribosomal protein S6 kinase alpha-4 (Homo sapiens) (UniProt O75676); test: Inhibition of ADP(ATP)-biotin probe binding to MSK2 domain 1 in human Kelly cells at 1 uM incubated for 6 hrs by KiNativ profiling analysis; assay type: cell-based
[8] = Antiproliferative activity against human Kelly cells harboring wild type CDK12 assessed as reduction in cell viability incubated for 72 hrs by CelTiter-Glo assay; assay type: functional, cell-based
[9] = Metabolic stability in mouse liver microsomes assessed as half life; assay type: ADME, Microsome
[10] = Toxicity in nude mouse xenografted with human TC71 cells assessed as body weight loss at 10 mg/kg, ip for 21 days; assay type: organism-based; conditions: in vivo, 504 h, time 21 day
[11] = biological target: T1, Cyclin-dependent kinase 12/13 (Homo sapiens); test: Inhibition of CDK12/13 in human Jurkat cells assessed as BRCA1 gene expression at 0.5 to 1 uM incubated for 4 hrs by RT-qPCR analysis; assay type: cell-based; set-up: scale not given: the % may be the effect or the level left; conditions: dose 0.5-1 µM
[12] = biological target: Cyclin-dependent kinase 12 (Homo sapiens) (UniProt Q9NYV4); test: Inhibition of ADP(ATP)-biotin probe binding to CDK12 in human Kelly cells at 1 uM incubated for 6 hrs by KiNativ profiling analysis; assay type: cell-based
[13] = Downregulation of RNA polymerase 2 in human Jurkat cells at 0.5 uM measured after 6 hrs by immunoblotting analysis; assay type: functional
[14] = biological target: T1, Cyclin-dependent kinase 12/13 (Homo sapiens); test: Inhibition of CDK12/13 in human jurkat cells assessed as reduction in RNA polymerase 2 CTD phosphorylation at Ser2 residue at 0.5 uM measured after 6 hrs by immunoblotting analysis; assay type: cell-based
[15] = Half life in Swiss albino mouse at 3 mg/kg, iv measured upto 24 hrs by LC-MS/MS analysis; assay type: ADME, organism-based; conditions: in vivo
[16] = biological target: Serine/threonine-protein kinase 16 (Homo sapiens) (UniProt O75716); test: Inhibition of ADP(ATP)-biotin probe binding to MPSK1 in human Kelly cells at 1 uM incubated for 6 hrs by KiNativ profiling analysis; assay type: cell-based
[17] = biological target: Cyclin-dependent kinase 7 (Homo sapiens) (UniProt P50613); test: Inhibition of THZ1-biotin binding from CDK7 in human Jurkat cells at 5 uM incubated for 6 hrs by CyclinH antibody based competitive pull down assay; assay type: cell-based
[18] = Antiproliferative activity against human TC71 cells assessed as reduction in cell viability; assay type: functional, cell-based; conditions: TC-71
[19] = biological target: T1, Cyclin-dependent kinase 12/13 (Homo sapiens); test: Inhibition of THZ1-biotin binding from CDK12/13 in human Jurkat cells at 500 nM incubated for 6 hrs by CyclinK antibody based competitive pull down assay; assay type: cell-based
[20] = Downregulation of RNA polymerase 2 CTD phosphorylation at Ser5 residue in human Jurkat cells at 5 uM incubated for 6 hrs by immunoblotting analysis; assay type: functional
[21] = biological target: Serine/threonine-protein kinase 10 (Homo sapiens) (UniProt O94804); test: Inhibition of ADP(ATP)-biotin probe binding to LOK in human Kelly cells at 1 uM incubated for 6 hrs by KiNativ profiling analysis; assay type: cell-based
[22] = biological target: T2, DNA-dependent protein kinase catalytic subunit (Homo sapiens, UniProt P78527); test: Inhibition of ADP(ATP)-biotin probe binding to DNAPK in human Kelly cells at 1 uM incubated for 6 hrs by KiNativ profiling analysis; assay type: cell-based
T2 sequence (P78527 whole entry): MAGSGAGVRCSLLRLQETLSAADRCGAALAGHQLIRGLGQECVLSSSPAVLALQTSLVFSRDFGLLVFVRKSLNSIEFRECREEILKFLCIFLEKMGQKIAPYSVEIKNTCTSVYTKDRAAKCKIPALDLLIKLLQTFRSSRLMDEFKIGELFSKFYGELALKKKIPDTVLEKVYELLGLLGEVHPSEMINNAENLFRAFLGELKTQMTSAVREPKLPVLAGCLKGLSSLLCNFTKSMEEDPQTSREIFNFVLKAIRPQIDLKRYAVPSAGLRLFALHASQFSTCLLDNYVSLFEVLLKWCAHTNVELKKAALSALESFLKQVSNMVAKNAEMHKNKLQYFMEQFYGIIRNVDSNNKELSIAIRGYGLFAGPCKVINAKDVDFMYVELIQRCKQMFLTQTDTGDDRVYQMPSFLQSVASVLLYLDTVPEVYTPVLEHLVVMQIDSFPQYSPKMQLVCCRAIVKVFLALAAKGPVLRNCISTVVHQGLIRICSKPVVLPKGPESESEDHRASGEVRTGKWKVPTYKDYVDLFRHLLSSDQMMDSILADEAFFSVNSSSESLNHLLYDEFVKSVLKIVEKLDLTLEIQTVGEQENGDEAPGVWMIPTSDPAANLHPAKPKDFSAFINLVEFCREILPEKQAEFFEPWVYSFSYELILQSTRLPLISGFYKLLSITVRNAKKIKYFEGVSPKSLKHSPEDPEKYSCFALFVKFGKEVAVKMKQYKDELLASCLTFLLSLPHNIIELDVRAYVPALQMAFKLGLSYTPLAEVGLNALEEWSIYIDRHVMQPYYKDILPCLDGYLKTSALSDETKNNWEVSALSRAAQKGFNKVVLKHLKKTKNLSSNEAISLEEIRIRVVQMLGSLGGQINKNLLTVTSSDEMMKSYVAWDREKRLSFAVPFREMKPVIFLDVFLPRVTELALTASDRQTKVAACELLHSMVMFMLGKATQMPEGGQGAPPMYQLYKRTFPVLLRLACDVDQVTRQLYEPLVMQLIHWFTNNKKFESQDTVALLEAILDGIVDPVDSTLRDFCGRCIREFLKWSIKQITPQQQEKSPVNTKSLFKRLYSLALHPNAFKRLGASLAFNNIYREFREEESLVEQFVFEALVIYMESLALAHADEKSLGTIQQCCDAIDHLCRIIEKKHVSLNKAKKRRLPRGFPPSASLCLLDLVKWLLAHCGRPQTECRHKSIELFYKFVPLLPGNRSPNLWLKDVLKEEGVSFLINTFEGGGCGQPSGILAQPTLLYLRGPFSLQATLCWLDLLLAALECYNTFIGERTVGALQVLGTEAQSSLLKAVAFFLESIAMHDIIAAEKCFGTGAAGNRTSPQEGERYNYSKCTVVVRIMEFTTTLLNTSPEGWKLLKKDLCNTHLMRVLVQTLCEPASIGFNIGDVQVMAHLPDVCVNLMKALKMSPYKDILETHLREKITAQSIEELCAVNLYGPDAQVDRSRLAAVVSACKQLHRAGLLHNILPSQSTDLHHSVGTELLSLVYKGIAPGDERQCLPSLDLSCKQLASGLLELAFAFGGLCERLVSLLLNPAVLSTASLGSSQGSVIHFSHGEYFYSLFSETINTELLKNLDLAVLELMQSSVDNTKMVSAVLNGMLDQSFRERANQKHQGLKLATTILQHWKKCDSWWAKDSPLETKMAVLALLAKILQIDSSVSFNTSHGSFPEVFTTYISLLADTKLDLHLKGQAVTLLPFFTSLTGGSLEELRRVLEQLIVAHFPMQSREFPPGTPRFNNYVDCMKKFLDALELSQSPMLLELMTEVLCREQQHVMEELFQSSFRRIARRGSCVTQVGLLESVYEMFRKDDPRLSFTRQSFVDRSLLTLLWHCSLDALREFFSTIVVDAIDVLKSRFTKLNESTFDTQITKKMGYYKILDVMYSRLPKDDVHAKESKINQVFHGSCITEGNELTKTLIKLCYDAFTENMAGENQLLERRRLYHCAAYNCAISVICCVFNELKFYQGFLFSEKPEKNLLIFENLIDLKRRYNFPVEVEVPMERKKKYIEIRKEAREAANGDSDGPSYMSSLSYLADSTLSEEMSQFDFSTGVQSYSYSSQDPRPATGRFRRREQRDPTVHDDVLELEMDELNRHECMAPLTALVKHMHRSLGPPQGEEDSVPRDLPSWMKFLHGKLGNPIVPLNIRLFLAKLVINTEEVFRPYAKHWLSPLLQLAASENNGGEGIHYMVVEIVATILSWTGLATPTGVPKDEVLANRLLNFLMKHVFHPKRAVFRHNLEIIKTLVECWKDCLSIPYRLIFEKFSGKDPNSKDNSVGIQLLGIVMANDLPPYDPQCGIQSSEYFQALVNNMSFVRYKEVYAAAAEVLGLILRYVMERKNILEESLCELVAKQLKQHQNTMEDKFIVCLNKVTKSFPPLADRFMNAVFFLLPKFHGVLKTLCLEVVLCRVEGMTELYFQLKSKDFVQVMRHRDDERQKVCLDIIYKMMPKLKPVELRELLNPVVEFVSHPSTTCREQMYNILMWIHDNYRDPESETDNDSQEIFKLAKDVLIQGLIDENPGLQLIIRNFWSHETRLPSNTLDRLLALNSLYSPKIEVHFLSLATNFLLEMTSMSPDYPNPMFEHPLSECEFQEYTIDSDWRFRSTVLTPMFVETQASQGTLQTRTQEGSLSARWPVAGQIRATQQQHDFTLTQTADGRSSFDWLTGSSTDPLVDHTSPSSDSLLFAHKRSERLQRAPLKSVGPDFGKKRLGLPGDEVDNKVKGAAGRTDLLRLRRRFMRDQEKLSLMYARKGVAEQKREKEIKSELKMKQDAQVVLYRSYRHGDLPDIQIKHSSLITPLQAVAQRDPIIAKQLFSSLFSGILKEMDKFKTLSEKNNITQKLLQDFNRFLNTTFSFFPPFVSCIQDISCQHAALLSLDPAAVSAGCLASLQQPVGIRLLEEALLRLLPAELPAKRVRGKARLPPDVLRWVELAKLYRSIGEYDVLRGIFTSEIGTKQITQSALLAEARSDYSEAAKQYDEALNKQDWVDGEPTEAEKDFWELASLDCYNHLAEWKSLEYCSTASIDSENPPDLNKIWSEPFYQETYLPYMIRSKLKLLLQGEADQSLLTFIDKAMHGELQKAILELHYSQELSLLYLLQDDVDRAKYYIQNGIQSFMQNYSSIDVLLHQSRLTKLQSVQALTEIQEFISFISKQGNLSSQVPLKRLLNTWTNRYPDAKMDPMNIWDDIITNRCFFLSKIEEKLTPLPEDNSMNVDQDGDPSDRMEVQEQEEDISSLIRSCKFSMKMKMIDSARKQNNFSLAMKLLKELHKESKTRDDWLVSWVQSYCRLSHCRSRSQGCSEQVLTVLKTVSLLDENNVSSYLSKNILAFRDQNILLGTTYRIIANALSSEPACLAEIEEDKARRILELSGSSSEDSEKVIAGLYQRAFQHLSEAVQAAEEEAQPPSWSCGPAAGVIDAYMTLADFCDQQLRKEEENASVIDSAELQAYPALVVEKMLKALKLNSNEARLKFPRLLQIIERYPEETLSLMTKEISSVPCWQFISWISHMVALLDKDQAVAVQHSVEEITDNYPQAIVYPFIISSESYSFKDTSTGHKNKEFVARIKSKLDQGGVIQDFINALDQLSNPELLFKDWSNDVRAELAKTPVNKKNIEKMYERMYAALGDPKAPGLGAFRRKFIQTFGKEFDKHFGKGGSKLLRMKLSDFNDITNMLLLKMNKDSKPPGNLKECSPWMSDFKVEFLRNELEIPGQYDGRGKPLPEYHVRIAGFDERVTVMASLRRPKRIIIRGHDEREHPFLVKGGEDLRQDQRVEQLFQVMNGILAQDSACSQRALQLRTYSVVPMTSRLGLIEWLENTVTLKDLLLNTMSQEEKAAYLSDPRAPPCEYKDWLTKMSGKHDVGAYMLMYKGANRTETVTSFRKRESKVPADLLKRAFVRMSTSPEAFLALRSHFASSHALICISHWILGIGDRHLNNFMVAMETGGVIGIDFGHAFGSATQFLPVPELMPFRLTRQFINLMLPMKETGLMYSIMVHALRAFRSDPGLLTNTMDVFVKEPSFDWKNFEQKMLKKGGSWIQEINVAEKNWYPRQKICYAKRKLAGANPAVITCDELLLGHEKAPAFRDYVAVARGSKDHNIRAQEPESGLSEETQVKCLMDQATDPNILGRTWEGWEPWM

[23] = biological target: T2, DNA-dependent protein kinase catalytic subunit; test: Inhibition of human DNAPK by Invitrogen ADAPTA or Z'LYTE biochemical kinase assay
[24] = Cmax in Swiss albino mouse at 10 mg/kg, po measured upto 24 hrs by LC-MS/MS analysis; assay type: ADME, organism-based; set-up: route oral, dose 10 mg/kg, time <=24; conditions: in vivo
[25] = Downregulation of RNA polymerase 2 CTD phosphorylation at Ser5 residue in human Jurkat cells at 2.5 uM incubated for 6 hrs by immunoblotting analysis; assay type: functional
[26] = Downregulation of RNA polymerase 2 in human Jurkat cells at 1 uM measured after 6 hrs by immunoblotting analysis; assay type: functional
[27] = Volume of distribution at steady state in Swiss albino mouse at 3 mg/kg, iv measured upto 24 hrs by LC-MS/MS analysis; assay type: ADME, organism-based; conditions: in vivo
[28] = biological target: STE20-related kinase adapter protein beta (Homo sapiens) (UniProt Q9C0K7); test: Inhibition of ADP(ATP)-biotin probe binding to STLK6 in human Kelly cells at 1 uM incubated for 6 hrs by KiNativ profiling analysis; assay type: cell-based
Chain of STE20-related kinase adapter protein beta (Homo sapiens) (Q9C0K7 whole entry): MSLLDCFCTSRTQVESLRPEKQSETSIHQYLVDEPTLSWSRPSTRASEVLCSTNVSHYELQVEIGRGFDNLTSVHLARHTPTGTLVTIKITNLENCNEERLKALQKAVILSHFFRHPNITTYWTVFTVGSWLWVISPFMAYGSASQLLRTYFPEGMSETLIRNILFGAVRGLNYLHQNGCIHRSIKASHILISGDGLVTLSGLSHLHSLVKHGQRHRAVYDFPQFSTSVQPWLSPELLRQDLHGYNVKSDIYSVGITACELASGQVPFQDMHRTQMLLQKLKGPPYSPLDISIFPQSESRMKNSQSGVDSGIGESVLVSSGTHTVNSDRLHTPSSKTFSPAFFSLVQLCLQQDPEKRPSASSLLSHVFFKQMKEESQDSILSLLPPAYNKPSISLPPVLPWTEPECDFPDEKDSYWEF

[29] = AUClast in Swiss albino mouse at 10 mg/kg, po measured upto 24 hrs by LC-MS/MS analysis; assay type: ADME, organism-based; set-up: route oral, dose 10 mg/kg, time <=24; conditions: in vivo
[30] = biological target: T1, Cyclin-dependent kinase 12/13 (Homo sapiens); test: Inhibition of CDK12/13 in human Jurkat cells assessed as BRCA2 gene expression at 0.5 to 1 uM incubated for 4 hrs by RT-qPCR analysis; assay type: cell-based; set-up: scale not given: the % may be the effect or the level left; conditions: dose 0.5-1 µM
[31] = Downregulation of RNA polymerase 2 CTD phosphorylation at Ser7 residue in human Jurkat cells at 5 uM incubated for 6 hrs by immunoblotting analysis; assay type: functional
[32] = Selectivity ratio of IC50 for human Kelly cells harboring CDK12 C1039F mutant to IC50 for human Kelly cells harboring wild type CDK12; assay type: functional
[33] = AUClast in Swiss albino mouse at 3 mg/kg, iv measured upto 24 hrs by LC-MS/MS analysis; assay type: ADME, organism-based; set-up: route intravenous, dose 3 mg/kg, time <=24; conditions: in vivo
[34] = Cmax in Swiss albino mouse at 3 mg/kg, iv measured upto 24 hrs by LC-MS/MS analysis; assay type: ADME, organism-based; set-up: route intravenous, dose 3 mg/kg, time <=24; conditions: in vivo
[35] = Downregulation of RNA polymerase 2 in human Jurkat cells at 2.5 uM measured after 6 hrs by immunoblotting analysis; assay type: functional
[36] = biological target: Ribosomal protein S6 kinase alpha-2 (Homo sapiens) (UniProt Q15349); test: Inhibition of ADP(ATP)-biotin probe binding to RSK3 domain 1 in human Kelly cells at 1 uM incubated for 6 hrs by KiNativ profiling analysis; assay type: cell-based

`CN(C)C/C=C/C(=O)Nc1ccc(O[C@@H]2CCC[C@@H](Nc3ncc(Cl)c(-c4c[nH]c5ccccc45)n3)C2)cc1` showed an inhibition [1] of 45.9%, an IC50 [2] of 283 nM and an inhibition [3] of 35.4%. It also gave an inhibition [4] of 78%, a Tmax [5] of 2 h and an inhibition [6] of 45.9%. The inhibition [7] was 40.3%, the IC50 [8] was 42.2 nM and the t1/2 [9] was 8 min. For the same compound, the Activity [10] was “Toxic”, the Activity [11] was 30% and the inhibition [12] was 76.8%. The inhibition at 0.5 µM [13] was 0%, the inhibition [14] was 45% and the t1/2 [15] was 2.2 h. The inhibition [16] was 42.4%, the inhibition [17] was “Active” and the IC50 [18] was 160 nM. For the same compound, the inhibition [19] was “Active”, the inhibition at 5 µM [20] was 47% and the inhibition [21] was 33.9%. For the same compound, the inhibition [22] was 38.3%, the IC50 [23] was > 10000 nM and the Cmax [24] was 272 ng/mL. For the same compound, the inhibition at 2.5 µM [25] was 47%, the inhibition at 1 µM [26] was 13% and the Vdss [27] was 3.9 L/kg. It also gave an inhibition [28] of 44.5%, an AUClast [29] of 1043 ng·h/mL and an Activity [30] of 30%. The inhibition at 5 µM [31] was 74%, the “Ratio IC50” value [32] was 5 and the AUClast [33] was 1832 ng·h/mL. For the same compound, the Cmax [34] was 1511 ng/mL, the inhibition at 2.5 µM [35] was 15% and the inhibition [36] was 41.6%.
